Results published in patent US20260151413A1, “ANTICANCER DRUG CONJUGATES” (Ariel Scientific Innovations Ltd., priority 2022, published 2026).
“Also recorded” adds a separate entry of the source. Like-named read-outs stand apart in the source and are kept apart here.

How the values were obtained:
[1] = system: OCI-AML3, KG-1a, Granta, Jeko-1, BV-173 and MDA MB-231 cell-lines; test: Low-dose proliferation test on aggressive cell-lines; format: cell-based; conditions: 50 nM-250 nM
Protocol: The cytotoxicity of the synthesized chimeras on MDA MB-328 was determined by measuring the mitochondrial enzyme activity, using a commercial XTT assay kit (Biological Industries, Bet-Ha'emek, Israel). All samples contained DMSO (Sigma Aldrich) at final concentration […], XTT reagent was added, and the cells were re-incubated for additional 3 h. During that time, the absorbencies in the wells were measured with a TECAN Infinite M200 ELISA reader at both 480 and 680 nm. The difference between these measurements was used for calculating the % Growth Inhibition (GI) in test wells compared to two controls: cells that were exposed to the medium and solvent, and those which were exposed to a solvent-free medium. All the tests were done in tetra-plicate; each experiment was conducted three times.
Therefore, it was decided to reduce chimera 9 and the parental drug (doxorubicin) doses to 50-250 nM range on the most four aggressive hematological malignancies cell-lines (OCI-AML3, KG-1a, Granta and Jeko-1). Moreover, chimera 9 was examined on an additional aggressive leukemia cell line (BV-173) and breast cancer cell-line model (MDA MB-231).

JEKO-1 = test: WST-1 proliferation assay, JEKO-1; format: cell-based, human; conditions: Homo sapiens, JeKo-1; WST-1, 48 hours of treatment
Protocol: (§1) Albert Pinhasov (Ariel University, Ariel, Israel). […] Granta cells were kindly provided by Prof.
(§2) Table 3 [resents the calculated IC50 values (μM) for each chimera in different hematological malignancies cell-lines. The proliferation rate was measured by WST-1 assay after 48 hours of treatment. The result shown for each concentration point represents the […]

[2] = system: triple negative breast cancer (TNBC) MDA 231 cells; conditions: for weight maintenance, survival and tumor growth suppression compared with doxorubicin: ip administration
Protocol: Five-week-old athymic Nude-Foxn 1nu male mice (ENVIGO Labs, Nes Ziona, Israel) were subcutaneously inoculated on the dorsal left side with […] (1×10^6 cell) into nu/nu mice, 0.2 mL per mouse) and tumors allowed to establish over time. When tumor volume reached 100 mm^3, Doxorubicin (Dox) and Doxorubizen (Chimera 9) were administered intraperitoneally (ip). Animals were removed from an experiment if either of the following conditions were fulfilled: reduction of 20% or more body weight; tumor volume>0.55 cm^3. The tumor dimensions were measured using a Vernier caliper and the volume was calculated according to the equation: Volume (mm^3) ¼ length×width×width×½ three times per week. The in vivo experiments were approved by the Animal Ethics Committee (Authorization number IL-179-06-19).
Chimera 9 was also evaluated for its effect on breast cancer model. For this evaluation, […] nude female (6-8 weeks) mice (groups 1, 2, two mice per group, groups 3, 4, 5 three mice per group) were inoculated with triple negative breast cancer (TNBC) MDA 231 cells. Group 1 was used as the control for tumor growth. After 10 days, mice were […] (ip) administered with Doxorubicin (groups 2 and 4) and Chimera 9 (Doxorubizen) (groups 3 and 5) in the following regime: ip administration of 2.5 mg/kg Doxorubicin once per week (group 2) and three sequential days per week (group 4); ip administration of 3.5 mg/kg chimera 9 once per week (group 3) and three sequential days per week (group 5). Overall experiment carried out for 5 weeks and 4 days, when the tumor volumes for all the groups were monitored. Tumors were then resected and measured.

[3] = system: OCI-AML3, KG-1a, Granta, Jeko-1 and BV-173 cells; test: Apoptosis assay (Muse AnnexinV and Dead Cell kit); format: cell-based; conditions: 50-250 nM depending on cell line, 48 hours, compared to the parental drug
Protocol: Cells were analyzed using the multifunctional Muse®AnnexinV and Dead Cell kit (Luminex/Millipore, Austin, Texas, USA). Cells were treated with indicated concentrations of Doxorubizen, the corresponding parent drug, or with DMSO. After 48 hours of incubation cells were harvested, washed twice in PBS, and 2×10^5 cells were stained with 100 μl of Muse AnnexinV and Dead Cell Reagent. Samples were incubated for 20 min at room temperature in the dark. Cells were analyzed by the Muse®CellAnalyzer system (Millipore, Billerica, MA, USA), and the percentage of apoptosis was determined using Guava software (Luminex/Millipore, USA, version 3.3).
(§3) Chimera 9 was evaluated for its biological impact on mitochondrial function and cell death. To that end, the inventor treated the following cell lines OCI-AML3 (100 nM), KG-1a (100 nM), Granta (250 nM), Jeko-1 (50 nM) and BV-173 (50 nM) with doxorubicin or chimera 9.

KG-1a = test: WST-1 proliferation assay, KG-1a; format: cell-based; conditions: Homo sapiens, KG-1a; WST-1, 48 hours of treatment
Protocol: as §1, §2

MHH-CALL4 = test: WST-1 proliferation assay, MHH-CALL4; format: cell-based, human; conditions: Homo sapiens, MHHCALL4; WST-1, 48 hours of treatment
Protocol: as §1, §2

HEL = test: WST-1 proliferation assay, HEL; format: cell-based, human; conditions: Homo sapiens, HEL; WST-1, 48 hours of treatment
Protocol: as §1, §2

DND41 = test: WST-1 proliferation assay, DND41; format: cell-based, human; conditions: Homo sapiens, DND41; WST-1, 48 hours of treatment
Protocol: as §1, §2

[4] = system: 10 hematological cell-lines; test: In vitro cytotoxicity screening on the panel of hematological cell-lines (WST-1)
Protocol: The above cells were cultured in RPMI medium (Gibco, Thermo Fisher Scientific Inc., USA). […] All media were supplemented with 10% heat-inactivated Fetal Bovine Serum (FBS, Biological industries, Israel), 2 mM glutamine (Biological industries, Israel) and 1% penicillin and streptomycin (Biological industries, Israel). Cells were cultured at 37° C. in a humidified incubator with 5% CO2.
Growth inhibition in hematological malignancies cell-lines was measured by tetrazolium WST-1 assay (Roche, Basel, Switzerland). Cells (1*10^4) were treated with various concentrations of the specific chimera or parental drug. After 48 h of incubation, 10 μl of WST-1 reagent was added to the plate and incubated for 1 h at 37° C., at which point the absorbance (450 nm) was measured in an ELISA plate reader (Synergy HTX multi-mode reader, Winooski, Vermont, USA).
MUTZ5 and MHH-CALL4; B-cell Acute lymphocytic leukemia (B-cell ALL) model. DND41; T-ALL model. KG-1a and OCI-AML-3; Acute myeloid leukemia (AML) model and HEL; erythroleukemia model.

[5] = system: OCI-AML3, KG-1a, Granta, Jeko-1 and BV-173 cells; test: Mitochondrial depolarization (Muse Mitochondrial Kit); format: cell-based; conditions: 50-250 nM depending on cell line, 48 hours, compared to the parental drug
Protocol: Changes in mitochondrial potential and cellular plasma membrane permeabilization, were determined with the Muse® Mitochondrial Kit (Luminex, USA). Briefly, Cells were treated with DMSO or the relevant chimera for 48 hours. The cells were incubated with MitoPotential working solution for 20 minutes at 37° C. in 5% CO2. Then, 5 μL Muse® MitoPotential 7-ADD reagent were added and the cells were incubated for 5 minutes at room temperature. The percentage of four cell populations: live (mitopotential+/7−AAD−), depolarized live (mitopotential−/7−AAD−), dead (mitopotential+/7−AAD+), and depolarized dead (mitopotential−/7−AAD+) were measured using the Muse® Cell Analyzer (Luminex, USA).
as §3

[6] = system: Human primary anaplastic thyroid cancer (ATC) cells; test: Vitality/proliferation of primary anaplastic thyroid cancer cells; format: cell-based; conditions: 100 nM, 250 nM, 500 nM; 3, 5 and 7 days
Protocol: Human primary anaplastic thyroid cancer (ATC) cells were treated with chimera 9 (100 nM, 250 nM, and 500 nM), or Doxorubicin (100 nM, 250 nM, and 500 nM), or with vehicle, for 3, 5, and 7 days.

[7] = Group 5: ip 3.5 mg/kg, three sequential days per week

Question: COC(=O)N(C)/N=N/c1ccc(CNC2CC(OC3CC(O)(C(=O)CO)Cc4c(O)c5c(c(O)c43)C(=O)c3c(OC)cccc3C5=O)OC(C)C2O)cc1 (stereo not shown) [Chimera 9, (E)-methyl-3-(4-(((3-hydroxy-2-methyl-6-((3,5,12-trihydroxy-3-(2-hydroxyacetyl)-10-methoxy-6,11-dioxo-1,2,3,4,6,11-hexahydrotetracen-1-yl)oxy)tetrahydro-2H-pyran-4-yl)amino)methyl)phenyl)-1-methyltriaz-2-ene-1-carboxylate] was tested. Which “proliferation rate versus corresponding controls” value [1] did it give?
Answer: significant reduction in the proliferation rate

Question: What about the IC50 (JEKO-1) of the same compound?
Answer: 850 nM

Question: What about the “outcome compared to Group 2 (Doxorubicin once per week)” value ([2]; Group 3: ip 3.5 mg/kg once per week) of the same compound?
Answer: no statistical significance

Question: What about the body weight [2, 7] of the same compound?
Answer: didn't lose weight

Question: And the toxicity vs doxorubicin [2, 7]?
Answer: reduced toxicity

Question: And the tumor volume [2, 7]?
Answer: even reduced

Question: And the survival ([2]; Group 5: ip 3.5 mg/kg, three sequential days per week, 3.5 mg/kg)?
Answer: full survival; also recorded: survived until the end of the experiment

Question: And the “weight maintenance, survival and tumor growth suppression compared with doxorubicin” value [2]?
Answer: markedly superior

Question: And the “weight maintenance, survival and tumor growth suppression compared with doxorubicin” value ([2]; listed as Doxorubizen)?
Answer: profoundly superior

Question: And the rate of apoptosis [3]?
Answer: substantial increase in the rate of apoptosis

Question: And the IC50 (KG-1a)?
Answer: 400 nM

Question: And the IC50 (MHH-CALL4)?
Answer: 1140 nM

Question: What about the IC50 (HEL) of the same compound?
Answer: 970 nM

Question: And the IC50 (DND41)?
Answer: 640 nM

Question: And the cytotoxic effect ([4]; 250 nM)?
Answer: exceptional cytotoxic effect

Question: And the “effect on proliferation rate across the examined cell-lines” value ([4]; 10 hematological cell-lines, WST-1)?
Answer: inhibited the proliferation rate in all the examined cell-lines

Question: And the “cytotoxic effect compared to the parental non-conjugated drug” value ([4]; chimera vs its parent drug)?
Answer: reduced proliferation rate of numerous cell-lines; also recorded: superior to Doxorubicin

Question: What about the mitochondrial membrane potential [5] of the same compound?
Answer: significantly collapsed mitochondrial membrane potential

Question: What about the “vitality/proliferation of primary human ATC cells” value [6] of the same compound?
Answer: reduced the vitality/proliferation of primary human ATC cells significantly; also recorded: higher effect
